Data set [1] deals with HCT116 cells. The data set can be described thus: Viability assay (CellTiter Blue), HCT116 cells, hypoxia vs normoxia. The data set is classed as cell-based, human. The settings on record: for Index [3] Selectivity index (IC50 [2]/IC50 [1]): HCT116, normoxic IC50 / hypoxic IC50. The procedure: (§1) PANC-1 and HaCat cells (PANC-1: RRID:CVCL 0480, taken from a person, HaCat: RRID:CVCL 0038) were cultured in DMEM (Gibco, Cat #: 21969-035) supplemented with FBS (10%, Gibco, Cat #: A31698-02), Penicillin/Streptomycin (1%, Sigma-Aldrich, Cat #: P0781), and Ala-Gln (200 μM, Sigma-Aldrich, Cat #: G8541). BxPC3 cells (RRID:CVCL 0186, taken from a person) were cultured in RPMI 1640 (Gibco, Cat #: 61870-010) supplemented with FBS (10%) and Penicillin/Streptomycin (1%). U2OS (RRID:CVCL 0042) and HCT116 cells (RRID:CVCL 0291, ATCC CCL-247) were cultured in McCoy's 5A (Sigma cat. no. M9309) supplemented with FBS (10%) and Penicillin/Streptomycin (1%). Cells were grown under normoxic conditions in T75 flasks (Biolite, Thermo Scientific, Cat #: 130190) in a humidified atmosphere with 5% CO2 at 37° C. For hypoxic conditions cells were placed in a modular incubator chamber (MIC-101, Billups-Rothenberg) equipped with a 10-cm dish with milliQ water and flushed with CO2/N2 (5%/95%, BioNERT, AGA Cat #: 100466065) for 8 minutes at 20-25 L/minute. Cells were passaged approximately every third day by trypsination (Sigma-Aldrich, Cat #: T4049) followed by transfer of ⅕^th of the cells to a new flask. All cell cultures were handled aseptically in a laminar air flow bench and grown in sterile-filtered (Jetbiofil, Cat #: FPE204500) medium according to ATCC's recommendations. All human cell lines were correctly identified by short tandem repeat analysis and tested free of mycoplasma contamination by MycoAlert (Lonza, Cat #: LT07-218).
(§2) Cells were seeded in black 96-well plates (2000 cells/well, 75 μL/well, ThermoFisher Scientific, Cat #: 137103) in complete medium. Subsequently, the cells were allowed to adhere to the substratum overnight. The next day, compounds were serially diluted in DMSO as 200× solutions. The 200× solutions of compounds were initially diluted in complete medium to 4× solutions containing 2% DMSO. Finally, the compounds were given to cells by the addition of 25 μL/well in triplicates resulting in 1× solutions of compounds in 100 μL/well. The cells were then incubated under either normoxia or hypoxia. 90 minutes before the end of the experiment, all cells were given CellTiter Blue (20 μL/well, Promega, Cat #: G8080) and reincubated under normoxia for the remaining time of the experiment. The viability of the cells was assessed by measuring fluorescence in a plate reader (ex/em: 552±10/598±10, Tecan Spark 10M). Data were normalized to the two lowest concentrations of compound and fitted to a 4-parameter nonlinear regression in Prism 7.04 for Windows, GraphPad Software, La Jolla Calif. USA. IC50 values were extrapolated as the X value at Y=50%. Results can be found in Table 1 and the corresponding dose-response curves seen in FIGS. 12 to 17 and in FIGS. 9 to 10.

Data set [2] has as its system PANC-1 cells. The data set can be described thus: Viability assay (CellTiter Blue), PANC-1 cells, hypoxia vs normoxia. It counts as cell-based, human. The settings on record: for Index [3] Selectivity index (IC50 [2]/IC50 [1]): PANC1, normoxic IC50 / hypoxic IC50. The procedure: as §1, §2
For orientation: The colour change of resazurin is a common sign of viable cells or microbes.

The subject of data set [3] is BxPC3 cells. As to the kind of experiment: Viability assay (CellTiter Blue), BxPC3 cells, hypoxia vs normoxia. It counts as cell-based, human. The settings on record: for Index [3] Selectivity index (IC50 [2]/IC50 [1]): BxPC3, normoxic IC50 / hypoxic IC50. The method, then:
as §1, §2

Data set [4] concerns U2OS cells. As to the kind of experiment: Viability assay (CellTiter Blue), U2OS cells, hypoxia vs normoxia. It counts as cell-based, human. The settings on record: for Index [3] Selectivity index (IC50 [2]/IC50 [1]): normoxic IC50 / hypoxic IC50.
Method: (§3) Cells were seeded in black 96-well plates (2000 cells/well, 75 μL/well, ThermoFisher Scientific, Cat #: 137103) in complete medium. Subsequently, the cells were allowed to adhere to the substratum overnight. The next day, compounds were serially diluted in DMSO as 200× solutions. The 200× solutions of compounds were initially diluted in complete medium to 4× solutions containing 2% DMSO. Finally, the compounds were given to cells by the addition of 25 μL/well in triplicates resulting in 1× solutions of compounds in 100 μL/well. The cells were then incubated under either normoxia or hypoxia. 90 minutes before the end of the experiment, all cells were given CellTiter Blue (20 μL/well, Promega, Cat #: G8080) and reincubated under normoxia for the remaining time of the experiment. The viability of the cells was assessed by measuring fluorescence in a plate reader (ex/em: 552±10/598±10, Tecan Spark 10M). Data were normalized to the two lowest concentrations of compound and fitted to a 4-parameter nonlinear regression in Prism 7.04 for Windows, GraphPad Software, La Jolla Calif. […] IC50 values were extrapolated as the X value at Y=50%.
The test system of data set [5] is HaCat cells. The data set can be described thus: Viability assay (CellTiter Blue), HaCat cells, hypoxia vs normoxia. It counts as cell-based, human. The settings on record: for Index [3] Selectivity index (IC50 [2]/IC50 [1]): normoxic IC50 / hypoxic IC50.
Method: as §3
Data set [6] concerns tested cell lines. The data set can be described thus: Viability assays, summary statements across the tested cell lines. It counts as cell-based, human. The procedure:
as §1, with “Cells were passaged approximately every third day by trypsination (Sigma-Aldrich, Cat #: T4049) followed by transfer of ⅕^th of the cells to a new flask. All cell cultures were handled aseptically in a laminar air flow bench and grown in sterile-filtered (Jetbiofil, Cat #: FPE204500) medium according to ATCC's recommendations. All human cell lines were correctly identified by short tandem repeat analysis and tested free of mycoplasma contamination by MycoAlert (Lonza, Cat #: LT07-218).” left out
Cells were seeded in black 96-well plates (2000 cells/well, 75 μL/well, ThermoFisher Scientific, Cat #: 137103) in complete medium. […] The viability of the cells was assessed by measuring fluorescence in a plate reader (ex/em: 552±10/598±10, Tecan Spark 10M). […]

Data set [7] in a line: Chemical stability measurements (UPLC-UV). The settings on record: 20 μM in sodium tetraborate buffer (pH 10) with 30% MeOH, 23° C., up to 9 hours.
Method: The stability of compounds under neutral or basic conditions were tested by dissolving compounds to 20 μM in PBS (pH 7.4) or sodium tetraborate buffer (pH 10) both mixed with 30% MeOH. The mixtures were shaken vigorously and injected immediately in the HPLC. The reactions were allowed to run at 23° C. for 9 hours and injections were performed once per hour. The concentrations of unreacted compounds were determined by UPLC-UV (Agilent 1260 infinity II) at 262 nm by injecting 5 μL on a PFP column (Poroshell 120 PFP, 3.0×100 mm, 2.7 micron). The compounds were eluted by a 1 mL/minute-gradient of acetonitrile in H2O from 5% to 95% over 8 minutes, then 95% for 1 minute and then 5% acetonitrile in H2O in 30 seconds.
[8] abbreviates: HCT116, hypoxic conditions, read-out: IC50 (μM) [1].
The mark [9] stands for this setting: HCT116, normoxic conditions, read-out: IC50 (μM) [2].
Where [10] appears, read: PANC1, hypoxic conditions, read-out: IC50 (μM) [1].
Where [11] appears, read: PANC1, normoxic conditions, read-out: IC50 (μM) [2].
[12] abbreviates: BxPC3, hypoxic conditions, read-out: IC50 (μM) [1].
[13] abbreviates: BxPC3, normoxic conditions, read-out: IC50 (μM) [2].
Where [14] appears, read: hypoxic conditions, read-out: IC50 (μM) [1].
Setting [15] is: normoxic conditions, read-out: IC50 (μM) [2].
The mark [16] stands for this setting: Homo sapiens, hypoxic conditions, read-out: IC50 (μM) [1].
The mark [17] stands for this setting: Homo sapiens, normoxic conditions, read-out: IC50 (μM) [2].

Like-named read-outs stand apart in the source and are kept apart here.

This is an account of results in patent publication US12415789B2, “Macrocycles comprising a 4-amido-2,4-pentadienoate moiety for the treatment of hypoxic cancers” (Aarhus Universitet, priority 2019, dated 2025).

A word on the IC50: it is the midpoint of a concentration-inhibition curve.

With `C=C1C=CC(=O)N(C)CC(=O)NCCOc2cc(CCCCCCCCCCCC)ccc2C(=O)N1` [PH466, (E)-16-dodecyl-7-methyl-11-methylene-3,4,6,7,11,12-hexahydro-benzo[n][1]oxa[4,7,12]triazacyclopentadecine-5,8,13(2H)-trione], the IC50 was 0.98 µM in data set [1] (setting [8]); 4.2 µM in data set [1] (setting [9]); 1.8 µM in data set [2] (setting [10]); 4.1 µM in data set [2] (setting [11]); 3.4 µM in data set [3] (setting [12]); 4.9 µM in data set [3] (setting [13]). Further, the IC50 in data set [4] (setting [14]) stood at 2.1 µM; in data set [4] (setting [15]), 3.8 µM; in data set [5] (setting [14]), 3.9 µM; in data set [5] (setting [15]), 4.9 µM. Also, the “Index [3] Selectivity index (IC50 [2]/IC50 [1])” value (“Index [3] Selectivity index” below) in data set [1] worked out at 4.3; in data set [2], 2.3; in data set [3] it was 1.4; in data set [4] it was 1.8; in data set [5] it was 1.3.

As to `C=C1/C=C/C(=O)N(C)CC(=O)N[C@@H](CCCCNC(=O)OC(C)(C)C)COc2cc(CCCCCCCCCCCC)ccc2C(=O)N1` [PH911, tert-butyl (S,E)-(4-(16-dodecyl-7-methyl-11-methylene-5,8,13-trioxo-2,3,4,5,6,7,8,11,12,13-decahydrobenzo[n][1]oxa[4,7,12]-triazacyclopentadecin-3-yl)butyl)carbamate], the IC50 amounted to 0.73 µM in data set [1] (setting [8]); 3 µM in data set [1] (setting [9]); 0.76 µM in data set [2] (setting [10]); 6.2 µM in data set [2] (setting [11]); 1.2 µM in data set [3] (setting [12]); 4.7 µM in data set [3] (setting [13]). The “Index [3] Selectivity index” value in data set [1] is given as 4.2; in data set [2], 8.1; in data set [3] it was 3.9. Further, the selectivity indices entry in data set [6] is “four to eight-fold”.

As for `Nc1n[n+]([O-])c2ccccc2[n+]1[O-]` [Tirapazamine, reference compound], the “Index [3] Selectivity index” value in data set [1] is reported as 4.0; in data set [2], 7.1; in data set [3] it was 2.8; in data set [4], 5.5; in data set [5], 5.2. Besides, the 50% inhibitory concentration (IC50) in data set [1] (Homo sapiens, HCT-116, HCT116, hypoxic conditions, read-out: IC50 (μM) [1]) worked out at 14.4 µM; in data set [1] (Homo sapiens, HCT-116, HCT116, normoxic conditions, read-out: IC50 (μM) [2]) it was 58 µM; in data set [2] (Homo sapiens, PANC-1, PANC1, hypoxic conditions, read-out: IC50 (μM) [1]) it was 11 µM; in data set [2] (Homo sapiens, PANC-1, PANC1, normoxic conditions, read-out: IC50 (μM) [2]), 76 µM; in data set [3] (Homo sapiens, BXPC-3, BxPC3, hypoxic conditions, read-out: IC50 (μM) [1]) it was 14 µM; in data set [3] (Homo sapiens, BXPC-3, BxPC3, normoxic conditions, read-out: IC50 (μM) [2]), 39 µM. Moreover, the IC50 in data set [4] (setting [16]) worked out at 98 µM; in data set [4] (setting [17]) it was 18 µM; in data set [5] (setting [16]), 20 µM; in data set [5] (setting [17]), 106 µM.

For the compound `C=C1/C=C/C(=O)N(C)CC(=O)N[C@@H]([C@H](O)C(N)=O)C(=O)OC([C@H](C)CCCCCC)[C@H](C)C(=O)N1` (some centres unmarked) [rakicidin D], the “chemical stability at elevated pH” value in data set [7] is “decreased stability”.
